Data as given in patent publication US20260365670A1, “EGFR INHIBITORS AND USES THEREOF” (DIZAL (JIANGSU) PHARMACEUTICAL CO., LTD., priority 2022, published 2026).
Like-named read-outs stand apart in the source and are kept apart here.

How the values were obtained:
EGFR wild type = target: T1, EGFR wild type (Homo sapiens, UniProt P00533); assay: Inhibition of EGFR wild type biochemical enzymatic activity (HTRF); settings: 1 mM ATP
T1 construct: purchased Carna Bio
Description: (§1) Biological Example 1: Inhibition of EGFR WT and Mutant Biochemical Enzymatic Activity
(§2) The inhibition potency of compounds against these enzymes was assessed using Homogenous Time Resolved Fluorescence approach (HTRF, CisBio. Cat No. 62TKOPEJ).
(§3) Inhibitory effects of the compounds were determined by measuring the enzymatic activity of EGFR enzyme phosphorylates 1 μM TK Substrate-biotin in the presence of 1 mM adenosine-5′-triphosphate (ATP) and varying concentrations of the test compound. The enzyme reaction buffer contains 5 mM MgCl2, 1 mM MnC12, 0.01% CHAPS, 1 mM dithiothreitol (DTT), 0.5% dimethylsulfoxide (DMSO), and 1× supplemented enzymatic buffer. The WT and mutant EGFR enzymes (SignalChem) were added to plates containing inhibitors, followed by activation of the kinase reaction by addition of ATP and peptide substrates. After incubation for 1 h at room temperature, the reaction was stopped by the addition of the detection reagent mix containing EDTA. The fluorescence was measured at 615 nm and 665 nm, respectively with excitation wavelength at 320 nm. The calculated signal ratio of 665 nm/615 nm is proportional to the kinase activity. The concentration of compound producing 50% inhibition of the respective kinase (IC50) was calculated using four-parameter logistic fit with XL-FIT.

EGFR L858R/T790M = target: T2, EGFR L858R/T790M (Homo sapiens, UniProt P00533, L858R/T790M); assay: Inhibition of EGFR L858R/T790M biochemical enzymatic activity (HTRF); settings: 1 mM ATP
T2 construct: purchased Carna Bio
Description: as §1, §2, §3

EGFR Exon19Del = target: T3, EGFR Exon19Del (Homo sapiens, UniProt P00533, DEL746-750); assay: Inhibition of EGFR Exon19Del biochemical enzymatic activity (HTRF); settings: read-out: IC50 @Del19
T3 construct: purchased Carna Bio
T3 sequence (P00533 with tags, fused parts or gaps DEL746-750 limits assumed): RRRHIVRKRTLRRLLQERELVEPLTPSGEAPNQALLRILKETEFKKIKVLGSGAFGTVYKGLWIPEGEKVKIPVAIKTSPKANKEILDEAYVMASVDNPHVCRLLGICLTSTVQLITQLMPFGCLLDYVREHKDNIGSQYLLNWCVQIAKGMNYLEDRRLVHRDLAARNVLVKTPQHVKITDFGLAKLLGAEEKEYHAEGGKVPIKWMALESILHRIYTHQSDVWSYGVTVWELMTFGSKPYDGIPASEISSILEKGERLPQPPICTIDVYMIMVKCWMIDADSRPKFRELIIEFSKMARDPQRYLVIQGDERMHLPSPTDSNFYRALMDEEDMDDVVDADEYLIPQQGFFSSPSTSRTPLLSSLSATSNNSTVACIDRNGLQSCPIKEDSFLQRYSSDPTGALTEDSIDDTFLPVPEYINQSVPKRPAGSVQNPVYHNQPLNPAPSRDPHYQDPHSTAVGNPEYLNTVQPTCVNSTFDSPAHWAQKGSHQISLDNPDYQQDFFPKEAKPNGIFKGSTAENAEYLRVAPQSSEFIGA
Description: as §1, §2, §3

EGFR Exon19Del/T790M = target: T4, EGFR Exon19Del/T790M (Homo sapiens, UniProt P00533, DEL746-750/T790M); assay: Inhibition of EGFR Exon19Del/T790M biochemical enzymatic activity (HTRF); settings: 1 mM ATP
T4 construct: purchased Carna Bio
T4 sequence (P00533 with tags, fused parts or gaps DEL746-750/T790M limits assumed): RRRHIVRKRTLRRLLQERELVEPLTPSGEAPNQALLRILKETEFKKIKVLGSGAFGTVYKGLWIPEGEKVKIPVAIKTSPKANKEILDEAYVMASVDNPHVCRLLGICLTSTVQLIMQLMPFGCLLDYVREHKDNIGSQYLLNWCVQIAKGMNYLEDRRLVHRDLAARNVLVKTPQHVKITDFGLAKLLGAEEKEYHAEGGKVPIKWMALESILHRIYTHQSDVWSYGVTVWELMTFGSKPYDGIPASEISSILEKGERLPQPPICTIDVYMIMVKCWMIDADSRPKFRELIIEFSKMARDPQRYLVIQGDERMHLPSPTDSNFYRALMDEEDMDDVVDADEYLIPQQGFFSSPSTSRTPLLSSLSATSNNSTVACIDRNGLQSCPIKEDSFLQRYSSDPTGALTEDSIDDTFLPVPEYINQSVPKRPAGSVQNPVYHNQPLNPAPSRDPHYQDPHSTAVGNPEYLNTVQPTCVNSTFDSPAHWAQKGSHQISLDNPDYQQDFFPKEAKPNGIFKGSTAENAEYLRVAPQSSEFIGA
Description: as §1, §2, §3

EGFR[T790M/C797S/L858R] = target: T5, EGFR[T790M/C797S/L858R] (Homo sapiens, UniProt P00533, C797S/L858R/T790M); assay: Inhibition of EGFR[T790M/C797S/L858R] biochemical enzymatic activity (HTRF); settings: 1 mM ATP
T5 construct: purchased Carna Bio
T5 sequence (P00533 25-1210 T790M/C797S/L858R): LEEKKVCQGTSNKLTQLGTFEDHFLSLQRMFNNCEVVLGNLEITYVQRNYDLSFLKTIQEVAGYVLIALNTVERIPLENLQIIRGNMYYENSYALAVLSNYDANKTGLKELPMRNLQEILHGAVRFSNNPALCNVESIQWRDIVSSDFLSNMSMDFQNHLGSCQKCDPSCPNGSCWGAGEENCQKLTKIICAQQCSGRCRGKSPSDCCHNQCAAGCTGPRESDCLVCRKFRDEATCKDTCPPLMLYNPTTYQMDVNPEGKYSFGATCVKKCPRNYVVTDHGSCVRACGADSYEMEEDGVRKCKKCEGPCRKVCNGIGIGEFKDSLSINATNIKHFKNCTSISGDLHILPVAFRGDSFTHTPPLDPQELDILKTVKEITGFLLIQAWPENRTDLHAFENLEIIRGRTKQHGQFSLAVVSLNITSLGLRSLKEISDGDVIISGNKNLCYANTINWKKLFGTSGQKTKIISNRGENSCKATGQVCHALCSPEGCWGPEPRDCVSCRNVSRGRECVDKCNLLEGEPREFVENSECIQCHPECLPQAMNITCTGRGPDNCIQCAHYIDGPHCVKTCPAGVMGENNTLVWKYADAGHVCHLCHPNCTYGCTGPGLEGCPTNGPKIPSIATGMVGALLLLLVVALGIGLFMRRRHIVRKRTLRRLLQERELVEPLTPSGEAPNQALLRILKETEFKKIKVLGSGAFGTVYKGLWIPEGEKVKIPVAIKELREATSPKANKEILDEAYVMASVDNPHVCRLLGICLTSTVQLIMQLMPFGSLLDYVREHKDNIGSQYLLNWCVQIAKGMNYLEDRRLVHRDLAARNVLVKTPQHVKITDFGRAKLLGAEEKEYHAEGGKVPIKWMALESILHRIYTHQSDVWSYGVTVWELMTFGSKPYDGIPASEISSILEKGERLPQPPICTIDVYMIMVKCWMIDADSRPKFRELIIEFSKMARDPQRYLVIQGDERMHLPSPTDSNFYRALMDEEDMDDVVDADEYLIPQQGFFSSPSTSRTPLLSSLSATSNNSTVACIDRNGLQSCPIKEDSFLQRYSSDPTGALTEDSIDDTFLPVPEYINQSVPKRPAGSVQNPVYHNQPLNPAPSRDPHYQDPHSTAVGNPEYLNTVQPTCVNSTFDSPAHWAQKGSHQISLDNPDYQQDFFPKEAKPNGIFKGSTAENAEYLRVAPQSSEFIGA
Description: as §1, §2, §3

[1] = target: T6, EGFR[T790M/C797S/d746-750] (Homo sapiens, UniProt P00533, C797S/DEL746-750/T790M); assay: Inhibition of EGFR[T790M/C797S/d746-750] biochemical enzymatic activity (HTRF)
T6 construct: purchased Carna Bio
T6 sequence (P00533 with tags, fused parts or gaps DEL746-750/T790M/C797S limits assumed): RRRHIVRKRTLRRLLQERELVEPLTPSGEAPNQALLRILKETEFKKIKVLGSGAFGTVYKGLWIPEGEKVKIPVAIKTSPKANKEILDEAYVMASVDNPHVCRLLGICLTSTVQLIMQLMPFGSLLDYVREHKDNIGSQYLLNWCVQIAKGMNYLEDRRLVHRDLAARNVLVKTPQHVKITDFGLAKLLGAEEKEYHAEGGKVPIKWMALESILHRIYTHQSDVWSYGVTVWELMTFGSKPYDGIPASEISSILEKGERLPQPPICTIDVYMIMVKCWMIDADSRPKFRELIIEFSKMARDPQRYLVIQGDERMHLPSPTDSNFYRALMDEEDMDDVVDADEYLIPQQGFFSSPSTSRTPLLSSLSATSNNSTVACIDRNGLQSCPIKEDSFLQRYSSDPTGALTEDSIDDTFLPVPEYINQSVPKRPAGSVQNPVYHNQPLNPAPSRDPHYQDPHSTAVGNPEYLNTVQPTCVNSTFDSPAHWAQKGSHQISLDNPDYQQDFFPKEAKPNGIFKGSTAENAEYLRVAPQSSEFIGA
Description: as §1, §2, §3

EGFR (d746-750 C797S) = target: T7, EGFR (d746-750 C797S) (Homo sapiens, UniProt P00533, C797S/DEL746-750); assay: Inhibition of EGFR (d746-750 C797S) biochemical enzymatic activity (HTRF); settings: 1 mM ATP
T7 construct: purchased signalchem
T7 sequence (P00533 with tags, fused parts or gaps DEL746-750/C797S limits assumed): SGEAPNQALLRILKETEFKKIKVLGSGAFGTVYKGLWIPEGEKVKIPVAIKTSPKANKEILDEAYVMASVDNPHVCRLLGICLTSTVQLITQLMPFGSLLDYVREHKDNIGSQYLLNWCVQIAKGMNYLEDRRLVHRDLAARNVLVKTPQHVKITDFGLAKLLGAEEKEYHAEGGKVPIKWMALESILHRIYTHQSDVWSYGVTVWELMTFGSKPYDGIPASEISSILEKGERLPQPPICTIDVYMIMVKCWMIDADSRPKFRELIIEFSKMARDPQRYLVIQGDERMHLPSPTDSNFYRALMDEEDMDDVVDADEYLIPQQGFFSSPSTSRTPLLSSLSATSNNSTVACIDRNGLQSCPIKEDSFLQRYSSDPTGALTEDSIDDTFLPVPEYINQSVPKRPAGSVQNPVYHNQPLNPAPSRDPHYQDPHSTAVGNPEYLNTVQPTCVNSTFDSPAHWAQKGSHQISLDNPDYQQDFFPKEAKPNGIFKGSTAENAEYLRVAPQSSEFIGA
Description: as §1, §2, §3

EGFR (C797S L858R) = target: T8, EGFR (C797S L858R) (Homo sapiens, UniProt P00533, C797S/L858R); assay: Inhibition of EGFR (C797S L858R) biochemical enzymatic activity (HTRF); settings: 1 mM ATP
T8 construct: purchased signalchem
T8 sequence (P00533 25-1210 C797S/L858R): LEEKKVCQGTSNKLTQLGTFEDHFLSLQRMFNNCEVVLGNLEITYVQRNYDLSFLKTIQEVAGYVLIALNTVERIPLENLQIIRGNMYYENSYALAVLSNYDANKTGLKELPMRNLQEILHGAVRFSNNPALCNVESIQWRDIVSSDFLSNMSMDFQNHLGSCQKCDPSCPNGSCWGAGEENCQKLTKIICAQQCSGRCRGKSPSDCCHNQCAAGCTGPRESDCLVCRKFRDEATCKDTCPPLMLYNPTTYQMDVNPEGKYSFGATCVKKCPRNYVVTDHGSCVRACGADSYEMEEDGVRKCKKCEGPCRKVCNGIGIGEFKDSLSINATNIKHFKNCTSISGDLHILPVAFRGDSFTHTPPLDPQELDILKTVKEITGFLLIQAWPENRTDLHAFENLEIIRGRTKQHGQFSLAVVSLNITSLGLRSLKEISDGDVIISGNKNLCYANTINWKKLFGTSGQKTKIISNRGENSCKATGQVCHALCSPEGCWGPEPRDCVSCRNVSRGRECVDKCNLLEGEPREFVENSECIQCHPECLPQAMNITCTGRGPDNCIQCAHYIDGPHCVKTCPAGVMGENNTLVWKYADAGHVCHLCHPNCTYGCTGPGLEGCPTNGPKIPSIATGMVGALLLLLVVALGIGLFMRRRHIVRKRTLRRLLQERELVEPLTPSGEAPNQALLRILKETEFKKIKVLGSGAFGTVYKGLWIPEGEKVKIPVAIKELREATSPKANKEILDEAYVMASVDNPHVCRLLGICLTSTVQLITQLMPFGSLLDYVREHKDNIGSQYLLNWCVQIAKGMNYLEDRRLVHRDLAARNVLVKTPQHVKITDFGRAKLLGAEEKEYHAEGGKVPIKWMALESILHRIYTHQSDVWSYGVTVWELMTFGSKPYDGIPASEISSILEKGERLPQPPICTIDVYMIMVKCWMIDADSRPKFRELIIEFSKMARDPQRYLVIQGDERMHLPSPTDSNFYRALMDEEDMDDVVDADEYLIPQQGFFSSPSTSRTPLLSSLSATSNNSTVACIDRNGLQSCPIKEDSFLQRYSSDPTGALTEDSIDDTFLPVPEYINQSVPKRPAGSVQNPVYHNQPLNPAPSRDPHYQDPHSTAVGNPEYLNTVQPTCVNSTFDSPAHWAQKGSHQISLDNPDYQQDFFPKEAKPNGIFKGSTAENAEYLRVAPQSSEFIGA
Description: as §1, §2, §3

[2] = system: Ba/F3 cells expressing EGFR mutations; assay: Cell proliferation assay, Ba/F3 cells expressing EGFR mutations (CellTiter-Glo, 72 hours); type: cell-based
Description: (§4) Biological Example 2: Cell Proliferation Assays
(§5) Ba/F3 cells expressing EGFR mutations were seeded in 384-well plates at 5000 cells/well in RPMI1640 medium containing […]. PC-9 at 500 cells/well was seeded into 384-well plates in RPMI1640 medium with 10% FBS. After overnight incubation, the assay plates were dosed with compounds at a series of concentrations. Alongside dosing the assay plates, the day 0 plate was processed using CellTiter-Glo® Luminescent Cell Viability Assay (Promega) to measure the number of viable cells (G0). The assay plates were further incubated for 72 hours and the number of viable cells (G3) was measured. The percentage of proliferation was calculated as: […]=100×(G3 value of sample well−G0 value)/(G3 value of DMSO control−G0 value). The concentration of compound producing 50% proliferation inhibition (GI50) was further calculated in best-fit curves using XLFit software. N/A=not available.

PC-9 = assay: Cell proliferation assay, PC-9 cells (CellTiter-Glo, 72 hours); type: cell-based; settings: Homo sapiens, PC-9, 72 h, PC9 cells, read-out: GI50 PC9
Description: as §4, §5

EGFR L858R = target: T9, EGFR L858R (Homo sapiens, UniProt P00533, L858R); assay: Inhibition of EGFR L858R biochemical enzymatic activity (HTRF); settings: 1 mM ATP
T9 construct: purchased Carna Bio
Description: as §1, §2, §3

[3] = EGFR wild type, 1 h at room temperature, read-out: IC50 @WT
[4] = EGFR L858R/T790M, 1 h at room temperature, read-out: IC50 @L858R-T790M
[5] = EGFR Exon19Del, 1 mM ATP, 1 h at room temperature
[6] = EGFR Exon19Del/T790M, 1 h at room temperature, read-out: IC50 @Del19-T790M
[7] = EGFR[T790M/C797S/L858R], 1 h at room temperature, read-out: IC50 @T790M- C797S - L858R
[8] = EGFR[T790M/C797S/d746-750], 1 mM ATP, 1 h at room temperature, read-out: IC50 @T790M - C797S - Del19
[9] = EGFR (d746-750 C797S), 1 h at room temperature, read-out: IC50 @Del19-C797S
[10] = EGFR (C797S L858R), 1 h at room temperature, read-out: IC50 @L858-C797S
[11] = BaF3 cells, EGFR L858R - T790-C797S, read-out: GI50 L858R - T790-C797S/BaF3
[12] = BaF3 cells, EGFR L858R - T790M, read-out: GI50 L858R - T790M/BaF3
[13] = EGFR DEL19 - T790M, read-out: GI50 DEL19 - T790M

| IC50 (EGFR wild type; [3]) | IC50 (EGFR L858R/T790M; [4]) | IC50 (EGFR Exon19Del; [5]) | IC50 (EGFR Exon19Del/T790M; [6]) | IC50 (EGFR[T790M/C797S/L858R]; [7]) | IC50 [1, 8] | IC50 (EGFR (d746-750 C797S); [9]) | IC50 (EGFR (C797S L858R); [10]) | GI50 [2, 11] | GI50 [2, 12] | GI50 [2, 13] | SMILES | further results |
| --- | --- | --- | --- | --- | --- | --- | --- | --- | --- | --- | --- | --- |
| > 500 nM | 1960 nM | 1420 nM | 109 nM | 1090 nM | 44 nM | 627 nM | > 5000 nM | 300 nM | 723 nM | 420 nM | Cc1cc2cc(n1)-c1cnn(C)c1OCCN1CCOCC(C1)n1c(nc3ccccc31)NC2=O (stereo not drawn) [Example B7, 15,21-dimethyl-23,29-dioxa-2,9,11,16,20,21,26-heptaazahexacyclo[24.4.1.1^{13,17}.0^{2,10}.0^{3,8}.0^{18,22}]dotriaconta-3,5,7,9,13(32),14,16,18(22),19-nonaen-12-one] | GI50 ([2]; BaF3 cells, EGFR DEL19 - T790-C797S, read-out: GI50 DEL19 - T790-C797S/BaF3): 296 nM; GI50 ([2]; Mus musculus, BaF3, 72 h, BaF3 cells, EGFR DEL19 - C797S, read-out: GI50 DEL19 - C797S/BaF3): 346 nM; GI50 ([2]; Mus musculus, BaF3, 72 h, BaF3 cells, EGFR L858R - C797S, read-out: GI50 L858R - C797S/BaF3): 334 nM; GI50 ([2]; Mus musculus, BaF3, 72 h, BaF3 cells, EGFR L858R, read-out: GI50 L858R/BaF3): 1900 nM; GI50 (PC-9): 667 nM |
| > 5000 nM | 37 nM | 38 nM | 21 nM | 14 nM | 8.2 nM | 26 nM | 300 nM | 19 nM | 38 nM | 10 nM | Cc1cc2cc(n1)-c1cnn(C)c1OCCN1CC3CCC(CC3)(C1)n1c(nc3ccc(N4CCC5(CCN(C)CC5)C4)cc31)NC2=O [Example B38] | IC50 (EGFR L858R; 1 h at room temperature, read-out: IC50 @L858R): 560 nM; GI50 ([2]; BaF3 cells, EGFR DEL19 - C797S, read-out: GI50 DEL19 - C797S/BaF3): 24 nM; GI50 ([2]; BaF3 cells, EGFR L858R, read-out: GI50 L858R/BaF3): 81 nM |
|  |  |  |  |  |  |  |  |  |  |  | CN(C)CCC1CN(c2ccc3nc4n(c3c2)C23CCC(CN(CCOc5c(cnn5C)-c5cc(cn(C)c5=O)C(=O)N4)C2)C3)C1 (single isomer, unassigned) [Example A95A] | IC50 (EGFR wild type; EGFR WT, 1 h, room temperature, read-out: IC50 (nM) @WT): > 5000 nM; IC50 (EGFR L858R; 1 h, room temperature, read-out: IC50 (nM) @L858R): 4640 nM; IC50 (EGFR L858R/T790M; EGFR L858R-T790M, 1 h, room temperature, read-out: IC50 (nM) @L858R-T790M): > 5000 nM; IC50 (EGFR Exon19Del; EGFR Del19, 1 mM ATP, 1 h, room temperature): 864 nM; IC50 (EGFR Exon19Del/T790M; EGFR Del19-T790M, 1 h, room temperature, read-out: IC50 (nM) @Del19-T790M): > 5000 nM; IC50 (EGFR[T790M/C797S/L858R]; EGFR T790M-C797S-L858R, 1 h, room temperature, read-out: IC50 (nM) @T790M- C797S - L858R): > 5000 nM; IC50 ([1]; EGFR T790M-C797S-Del19, 1 mM ATP, 1 h, room temperature, read-out: IC50 (nM) @T790M - C797S - Del19): > 5000 nM; IC50 (EGFR (d746-750 C797S); EGFR Del19-C797S, 1 h, room temperature, read-out: IC50 (nM) @Del19-C797S): 899 nM; IC50 (EGFR (C797S L858R); EGFR L858-C797S, 1 h, room temperature, read-out: IC50 (nM) @L858-C797S): > 5000 nM |
